The results in this text go back to patent US9409892B2, “4-hydroxy-isoquinoline compounds as HIF hydroxylase inhibitors” (FIBROGEN, INC., priority 2012, dated 2016).

Where “and” joins values, the source holds several entries; their conditions need not be identical. Identical values can stand only once. Like-named read-outs stand apart in the source and are kept apart here.

In test [1] the target is PHD2 (EGLN1) (Homo sapiens (Human), UniProt Q9GZT9). The test is described as follows: HIF-PH assay (14CO2 capture), PHD2 enzyme inhibition. It is filed as biochemical. The conditions noted are these: Table 1.
The target of test [2] is PHD1 (EGLN2) (Homo sapiens (Human), UniProt Q96KS0). The test is described as follows: HIF-PH assay (14CO2 capture), PHD1 enzyme inhibition. It is filed as biochemical. The note with it: Table 1; for PHD2/PHD1: ratio of the IC50 of the compound for each enzyme.
Where [3] appears, read: individual measurement, read-out: IC50 (μM) PHD2.
Setting [4] is: individual measurement, read-out: IC50 (μM) PHD1.

Sequence of PHD2 (EGLN1) (Q9GZT9 whole entry): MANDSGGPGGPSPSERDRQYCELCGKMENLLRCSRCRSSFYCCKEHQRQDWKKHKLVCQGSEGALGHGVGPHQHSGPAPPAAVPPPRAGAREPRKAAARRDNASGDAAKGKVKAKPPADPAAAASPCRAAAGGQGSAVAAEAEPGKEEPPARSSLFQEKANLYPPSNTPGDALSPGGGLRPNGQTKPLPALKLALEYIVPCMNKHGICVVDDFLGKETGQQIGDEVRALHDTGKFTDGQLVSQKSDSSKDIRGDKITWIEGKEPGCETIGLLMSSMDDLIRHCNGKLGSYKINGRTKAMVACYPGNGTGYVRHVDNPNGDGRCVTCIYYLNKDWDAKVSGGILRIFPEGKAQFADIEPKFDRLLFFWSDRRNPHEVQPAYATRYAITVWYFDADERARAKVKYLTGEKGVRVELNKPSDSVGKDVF
Sequence of PHD1 (EGLN2) (Q96KS0 whole entry): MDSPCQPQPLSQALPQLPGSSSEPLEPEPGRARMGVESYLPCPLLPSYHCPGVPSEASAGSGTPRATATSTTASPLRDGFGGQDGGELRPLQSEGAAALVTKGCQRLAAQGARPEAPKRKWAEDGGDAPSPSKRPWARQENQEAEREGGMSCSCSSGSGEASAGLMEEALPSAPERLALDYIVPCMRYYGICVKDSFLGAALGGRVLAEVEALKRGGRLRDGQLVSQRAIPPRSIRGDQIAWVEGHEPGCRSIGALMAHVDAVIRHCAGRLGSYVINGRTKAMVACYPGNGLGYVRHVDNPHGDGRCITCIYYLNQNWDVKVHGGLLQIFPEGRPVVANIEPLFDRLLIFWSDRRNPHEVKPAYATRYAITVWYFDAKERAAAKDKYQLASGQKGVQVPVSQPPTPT

With `C[C@@H](CNC(=O)c1nc(C#N)c2cc(Oc3ccccc3)ccc2c1O)C(=O)O` [Compound 93, 3-[(1-Cyano-4-hydroxy-7-phenoxy-isoquinoline-3-carbonyl)-amino]-2-(S)-methyl-propionic acid], the IC50 (as a rule, the midpoint of a concentration-inhibition curve) in test [1] (setting [3]) stood at 2.4 µM; in test [2] (setting [4]) it was 0.16 µM. Besides, the PHD2/PHD1 in test [2] was 15.
The matching figures for `CO[C@@H](CCNC(=O)c1nc(C#N)c2cc(Oc3ccccc3)ccc2c1O)C(=O)O` [Compound 94, 4-[(1-Cyano-4-hydroxy-7-phenoxy-isoquinoline-3-carbonyl)-amino]-2-(S)-methoxy-butyric acid]: 2.18 µM, 0.31 µM and 7.
In the case of `CC(C)(CCCNC(=O)c1nc(C#N)c2cc(Oc3ccccc3)ccc2c1O)C(=O)O` [Compound 95, 5-[(1-Cyano-4-hydroxy-7-phenoxy-isoquinoline-3-carbonyl)-amino]-2,2-dimethyl-pentanoic acid], the concentration for half-maximal inhibition (IC50) in test [1] (setting [3]) came out at 3.5 µM; in test [2] (setting [4]) it was 0.74 µM. Further, in test [2], the PHD2/PHD1 was 5.
The matching figures for `CC(C)(C)OC(=O)N1CCC(CC(=O)O)(NC(=O)c2nc(C#N)c3cc(Oc4ccccc4)ccc3c2O)CC1` [Compound 96, 4-Carboxymethyl-4-[(1-cyano-4-hydroxy-7-phenoxy-isoquinoline-3-carbonyl)-amino]-piperidine-1-carboxylic acid tert-butyl ester]: 158 µM, 11.3 µM and 14.
The matching figures for `N#Cc1nc(C(=O)NCCC(=O)O)c(O)c2ccc(Oc3ccc(F)cc3Cl)cc12` [Compound 97, 3-{[7-(2-Chloro-4-fluoro-phenoxy)-1-cyano-4-hydroxy-isoquinoline-3-carbonyl]-amino}-propionic acid]: 7.43 µM, 1.3 µM and 6.
The corresponding values for `N#Cc1nc(C(=O)NCCCCC(=O)O)c(O)c2ccc(Oc3ccc(F)cc3Cl)cc12` [Compound 98, 5-{[7-(2-Chloro-4-fluoro-phenoxy)-1-cyano-4-hydroxy-isoquinoline-3-carbonyl]-amino}-pentanoic acid] are 3.73 µM, 0.27 µM and 14.
As for `CC(C)(CNC(=O)c1nc(C#N)c2cc(Oc3ccc(F)cc3Cl)ccc2c1O)C(=O)O` [Compound 99, 3-{[7-(2-Chloro-4-fluoro-phenoxy)-1-cyano-4-hydroxy-isoquinoline-3-carbonyl]-amino}-2,2-dimethyl-propionic acid], the values for the IC50 in test [1] (setting [3]) and in test [2] (setting [4]) were 5.55 µM and 0.29 µM, respectively. Also, the PHD2/PHD1 in test [2] worked out at 19.
The corresponding values for `O=C(O)CCCCNC(=O)c1ncc2cc(Oc3c(F)cccc3F)ccc2c1O` [Compound 100, 5-{[7-(2,6-Difluoro-phenoxy)-4-hydroxy-isoquinoline-3-carbonyl]-amino}-pentanoic acid] are 200 µM, 23.1 µM and 9.
The matching figures for `CC(C)(CNC(=O)c1nc(C#N)c2cc(Oc3ccc(F)cc3)ccc2c1O)C(=O)O` [Compound 101, 3{-[1-Cyano-7-(4-fluoro-phenoxy)-4-hydroxy-isoquinoline-3-carbonyl]-amino}-2,2-dimethyl-propionic acid]: 4.65 µM, 0.41 µM and 11.
The matching figures for `CC(C)(CC(=O)O)NC(=O)c1nc(C#N)c2cc(Oc3ccc(F)cc3)ccc2c1O` [Compound 102, 3{-[1-Cyano-7-(4-fluoro-phenoxy)-4-hydroxy-isoquinoline-3-carbonyl]-amino}-3-methyl-butyric acid]: 8.5 µM, 0.53 µM and 16.
In the case of `COc1ccc(Oc2ccc3c(O)c(C(=O)NC[C@H](O)C(=O)O)ncc3c2)cc1` [Compound 103, 2-(S)-Hydroxy-3-{[4-hydroxy-7-(4-methoxy-phenoxy)-isoquinoline-3-carbonyl]-amino}-propionic acid], the IC50 in test [1] (setting [3]) turned out to be 4.78 µM; in test [2] (setting [4]), 0.79 µM. Further, in test [2], the PHD2/PHD1 was found to be 6.
The matching figures for `COc1ccc(Oc2ccc3c(O)c(C(=O)NCC(C)(C)C(=O)O)ncc3c2)cc1` [Compound 104, 3-{[4-Hydroxy-7-(4-methoxy-phenoxy)-isoquinoline-3-carbonyl]-amino}-2,2-dimethyl-propionic acid]: 19.5 µM, 3.3 µM and 6.
The corresponding values for `COc1ccc(Oc2ccc3c(O)c(C(=O)NCCCCC(=O)O)ncc3c2)cc1` [Compound 105, 5-{[4-Hydroxy-7-(4-methoxy-phenoxy)-isoquinoline-3-carbonyl]-amino}-pentanoic acid] are 13.4 µM, 2.3 µM and 6.
The matching figures for `N#Cc1nc(C(=O)NC2(CC(=O)O)CCC2)c(O)c2ccc(Oc3ccccc3)cc12` [Compound 106, {1-[(1-Cyano-4-hydroxy-7-phenoxy-isoquinoline-3-carbonyl)-amino]-cyclobutyl}-acetic acid]: 74.5 µM, 7.79 µM and 10.
`N#Cc1nc(C(=O)N[C@H](CCc2ccccc2)CC(=O)O)c(O)c2ccc(Oc3ccccc3)cc12` [Compound 107, 3-(R)-[(1-Cyano-4-hydroxy-7-phenoxy-isoquinoline-3-carbonyl)-amino]-5-phenyl-pentanoic acid]: the IC50 was 11.8 µM in test [1] (average of multiple independent measurements, read-out: IC50 (μM) PHD2 avg.); 9.28 µM and 14.4 µM in test [1] (setting [3]); 2.37 µM in test [2] (average of multiple independent measurements, read-out: IC50 (μM) PHD1 avg.); 2.46 µM and 2.28 µM in test [2] (setting [4]). Besides, in test [2] (average of the ratios of multiple independent measurements), the PHD2/PHD1 avg. is recorded as 5 avg. Also, the PHD2/PHD1 in test [2] was 4 and 6.
Consider `Cc1nc(C(=O)NCCC(=O)O)c(O)c2ccc(Oc3ccccc3)cc12` [Compound 108, 3-[(4-Hydroxy-1-methyl-7-phenoxy-isoquinoline-3-carbonyl)-amino]-propionic acid], for which the figures for the IC50 in test [1] (setting [3]) and in test [2] (setting [4]) were 200 µM and 29 µM, respectively. Also, the PHD2/PHD1 in test [2] is reported as 7.
The matching figures for `Cc1cccc(C)c1Oc1ccc2c(C#N)nc(C(=O)NCCC(=O)O)c(O)c2c1` [Compound 109, 3{-[1-Cyano-6-(2,6-dimethyl-phenoxy)-4-hydroxy-isoquinoline-3-carbonyl]-amino}-propionic acid]: 30.4 µM, 6.4 µM and 5.
The corresponding values for `Cc1cccc(C)c1Oc1ccc2c(C#N)nc(C(=O)NCCCC(=O)O)c(O)c2c1` [Compound 110, 4-{[1-Cyano-6-(2,6-dimethyl-phenoxy)-4-hydroxy-isoquinoline-3-carbonyl]-amino}-butyric acid] are 21.3 µM, 3.63 µM and 6.
The matching figures for `Cc1cccc(C)c1Oc1ccc2c(C#N)nc(C(=O)NCCCCC(=O)O)c(O)c2c1` [Compound 111, 5-{[1-Cyano-6-(2,6-dimethyl-phenoxy)-4-hydroxy-isoquinoline-3-carbonyl]-amino}-pentanoic acid]: 112 µM, 10.5 µM and 11.
Turning to `O=C(O)CCNC(=O)c1ncc2ccc(Oc3ccccc3)cc2c1O` [Compound 112, 3-[(4-Hydroxy-6-phenoxy-isoquinoline-3-carbonyl)-amino]-propionic acid], the IC50 in test [1] (setting [3]) was 200 µM; in test [2] (setting [4]) it was 23.7 µM. Further, the PHD2/PHD1 in test [2] amounted to 8.
The matching figures for `O=C(O)CCCNC(=O)c1ncc2ccc(Oc3ccccc3)cc2c1O` [Compound 113, 4-[(4-Hydroxy-6-phenoxy-isoquinoline-3-carbonyl)-amino]-butyric acid]: 200 µM, 21.2 µM and 9.
The corresponding values for `O=C(O)CCCCNC(=O)c1ncc2cc(Sc3ccccc3)ccc2c1O` [Compound 114, 5-[(4-Hydroxy-7-phenylsulfanyl-isoquinoline-3-carbonyl)-amino]-pentanoic acid] are 86.6 µM, 13.5 µM and 6.
The matching figures for `O=C(O)CCCNC(=O)c1ncc2cc(Sc3ccccc3)ccc2c1O` [Compound 115, 4-[(4-Hydroxy-7-phenylsulfanyl-isoquinoline-3-carbonyl)-amino]-butyric acid]: 14.8 µM, 1.41 µM and 11.
Turning to `O=C(O)CCNC(=O)c1ncc2cc(NC(=O)Nc3ccccc3)ccc2c1O` [Compound 116, 3-{[4-Hydroxy-7-(3-phenyl-ureido)-isoquinoline-3-carbonyl]-amino}-propionic acid], the values for the IC50 in test [1] (setting [3]) and in test [2] (setting [4]) were 29.2 µM and 3.34 µM, respectively. In addition, the PHD2/PHD1 in test [2] is given as 9.
The matching figures for `O=C(Nc1ccccc1)Nc1ccc2c(O)c(C(=O)NC[C@H](O)C(=O)O)ncc2c1` [Compound 117, (S)-2-Hydroxy-3-{[4-hydroxy-7-(3-phenyl-ureido)-isoquinoline-3-carbonyl]-amino}-propionic acid]: 51.4 µM, 4.66 µM and 11.
The matching figures for `O=C(O)CCNC(=O)c1ncc2cc(NC(=O)c3ccc(F)cc3)ccc2c1O` [Compound 118, 3-{[7-(4-Fluoro-benzoylamino)-4-hydroxy-isoquinoline-3-carbonyl]-amino}-propionic acid]: 113 µM, 6.45 µM and 18.
The matching figures for `O=C(O)CCCNC(=O)c1ncc2cc(NC(=O)Nc3ccccc3)ccc2c1O` [Compound 119, 4-{[4-Hydroxy-7-(3-phenyl-ureido)-isoquinoline-3-carbonyl]-amino}-butyric acid]: 72.3 µM, 12.6 µM and 6.
